Columns and labels:
surinam grass = test: Test B pre/postemergence surinam grass; type: in vivo, Brachiaria decumbens
In short: (§1)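 Test chemicals in a non-phytotoxic solvent mixture with surfactant were sprayed preemergence onto planted seeds and postemergence onto plants 2 to 18 cm tall (1- to 4-leaf stage). After twelve to sixteen days in a greenhouse, injury was visually rated against untreated controls from 0 (no effect) to 10 (complete control).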

cocklebur = test: Test B pre/postemergence cocklebur; type: in vivo, Xanthium strumarium
In short: as §1

corn = test: Test B pre/postemergence corn; type: in vivo, Zea mays
In short: as §1

crabgrass = test: Test B pre/postemergence crabgrass; type: in vivo, Digitaria sanguinalis
In short: as §1

winter wheat [1] = test: Test E winter wheat; type: in vivo, Triticum aestivum; conditions: Postemergence; for Wheat (winter) plant response rating: Rate 250 g/ha
In short: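 Visual evaluation versus untreated controls after about 21 to 28 days in the greenhouse. Compound was in a surfactant-containing non-phytotoxic solvent; postemergence plants were treated at the 1- to 4-leaf stage, grown in a 60:40 sandy loam and potting mix blend.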

blackgrass = test: Test E blackgrass; type: in vivo, Alopecurus myosuroides; conditions: Preemergence; for Blackgrass plant response rating (0 to 100 scale): Rate 250 g/ha
green foxtail = test: Test E green foxtail; type: in vivo, Setaria viridis; conditions: Preemergence; for Green foxtail plant response rating (0 to 100 scale): Rate 250 g/ha
Italian ryegrass = test: Test E Italian ryegrass; type: in vivo, Lolium multiflorum; conditions: Preemergence; for I. Ryegrass plant response rating (0 to 100 scale): Rate 250 g/ha
winter wheat [2] = test: Test E winter wheat; type: in vivo, Triticum aestivum; conditions: Preemergence; for Wheat (winter) plant response rating (0 to 100 scale): Rate 250 g/ha
wild oat = test: Test E wild oat; type: in vivo, Avena fatua; conditions: Preemergence; for Wild oat plant response rating (0 to 100 scale): Rate 250 g/ha
winter barley = test: Test E winter barley; type: in vivo, Hordeum vulgare; conditions: Preemergence; for Barley (winter) plant response rating (0 to 100 scale): Rate 250 g/ha
[3] = Preemergence, Rate 62 g/ha, scale of 0 to 10 where 0 is no effect and 10 is complete control
[4] = Preemergence, Rate 250 g/ha, scale of 0 to 10 where 0 is no effect and 10 is complete control
[5] = Preemergence, Rate 500 g/ha, scale of 0 to 10 where 0 is no effect and 10 is complete control
[6] = Rate 62 g/ha, Postemergence, scale 0 to 10 (0 no effect, 10 complete control)
[7] = Rate 125 g/ha, Postemergence, scale of 0 to 10 where 0 is no effect and 10 is complete control
[8] = Rate 125 g/ha, Preemergence, scale of 0 to 10 where 0 is no effect and 10 is complete control
[9] = Rate 250 g/ha, Postemergence, scale of 0 to 10 where 0 is no effect and 10 is complete control
[10] = Rate 500 g/ha, Postemergence, scale 0 to 10, 0 no effect, 10 complete control
[11] = Rate 1000 g/ha, 0 to 100 scale where 0 is no effect and 100 is complete control
[12] = 0 to 100 scale where 0 is no effect and 100 is complete control
[13] = Rate 500 g/ha, 0 to 100 scale (0 no effect, 100 complete control)
[14] = Rate 1000 g/ha, 0 to 100 scale, 0 no effect, 100 complete control
[15] = Postemergence, Rate 125 g/ha, scale of 0 to 10 where 0 is no effect and 10 is complete control
[16] = Preemergence, Rate 125 g/ha, 0 is no effect, 10 is complete control
[17] = Preemergence, Rate 250 g/ha, scale 0 to 10, 0 is no effect, 10 is complete control
[18] = Preemergence, Rate 500 g/ha, scale 0 to 10 (0 no effect, 10 complete control)
[19] = Rate 62 g/ha, Postemergence, scale of 0 to 10 where 0 is no effect and 10 is complete control
[20] = Rate 250 g/ha, Postemergence, scale 0 to 10, 0 is no effect, 10 is complete control
[21] = Rate 500 g/ha, Postemergence, scale 0 to 10
[22] = Rate 500 g/ha, 0 to 100 scale where 0 is no effect and 100 is complete control

With CC(C)N(C(=O)n1oc(=O)n(C2CCCC2)c1=O)c1ccccc1 [Compound 283] the “B. signalgrass plant response rating” value (surinam grass; [3]) was 6, the “B. signalgrass plant response rating” value (surinam grass; [4]) was 10 and the “Plant response rating, B. signalgrass” value (surinam grass; [5]) was 10. The “B. signalgrass plant response rating” value (surinam grass; [6]) was 0, the “B. signalgrass plant response rating” value (surinam grass; [7]) was 0 and the “B. signalgrass plant response rating” value (surinam grass; [8]) was 10. For the same compound, the “Plant response rating, B. signalgrass” value (surinam grass; [9]) was 0, the “B. signalgrass plant response rating” value (surinam grass; [10]) was 2 and the “Cocklebur plant response rating” value (cocklebur; [3]) was 0. For the same compound, the “Cocklebur plant response rating” value (cocklebur; [4]) was 0, the “Plant response rating, Cocklebur” value (cocklebur; [5]) was 0 and the “Cocklebur plant response rating” value (cocklebur; [6]) was 2. For the same compound, the “Cocklebur plant response rating” value (cocklebur; [7]) was 2, the “Cocklebur plant response rating” value (cocklebur; [8]) was 0 and the “Plant response rating, Cocklebur” value (cocklebur; [9]) was 2. The “Cocklebur plant response rating” value (cocklebur; [10]) was 2, the “Corn plant response rating” value (corn; [3]) was 0 and the “Corn plant response rating” value (corn; [4]) was 0. For the same compound, the “Plant response rating, Corn” value (corn; [5]) was 0, the “Corn plant response rating” value (corn; [6]) was 0 and the “Corn plant response rating” value (corn; [7]) was 0. For the same compound, the “Corn plant response rating” value (corn; [8]) was 0, the “Plant response rating, Corn” value (corn; [9]) was 0 and the “Corn plant response rating” value (corn; [10]) was 0. For the same compound, the “Crabgrass plant response rating” value (crabgrass; [3]) was 2, the “Plant response rating, Crabgrass” value (crabgrass; [5]) was 7 and the “Crabgrass plant response rating” value (crabgrass; [6]) was 0. The “Crabgrass plant response rating” value (crabgrass; [7]) was 0, the “Crabgrass plant response rating” value (crabgrass; [8]) was 7 and the “Plant response rating, Crabgrass” value (crabgrass; [9]) was 1. For the same compound, the “Crabgrass plant response rating” value (crabgrass; [10]) was 1, the “Plant response rating, Wheat (winter)” value (winter wheat [1]; [11]) was 75 and the “Wheat (winter) plant response rating” value (winter wheat [1]; [12]) was 60. For the same compound, the “Plant response rating, Wheat (winter)” value (winter wheat [1]; Rate 500 g/ha, 0 to 100 scale, 0 is no effect, 100 is complete control) was 50, the “Blackgrass plant response rating (0 to 100 scale)” value (blackgrass) was 50 and the “Plant response rating, Blackgrass” value (blackgrass; [13]) was 60. For the same compound, the “Plant response rating, Blackgrass” value (blackgrass; [14]) was 85, the “Green foxtail plant response rating (0 to 100 scale)” value (green foxtail) was 100 and the “Plant response rating, Green foxtail” value (green foxtail; [13]) was 100. The “Plant response rating, Green foxtail” value (green foxtail; [14]) was 100, the “I. Ryegrass plant response rating (0 to 100 scale)” value (Italian ryegrass) was 70 and the “Plant response rating, I. Ryegrass” value (Italian ryegrass; [13]) was 90. For the same compound, the “Plant response rating, I. Ryegrass” value (Italian ryegrass; [14]) was 98, the “Wheat (winter) plant response rating (0 to 100 scale)” value (winter wheat [2]) was 50 and the “Plant response rating, Wheat (winter)” value (winter wheat [2]; [13]) was 65. For the same compound, the “Plant response rating, Wheat (winter)” value (winter wheat [2]; [14]) was 80, the “Wild oat plant response rating (0 to 100 scale)” value (wild oat) was 65 and the “Plant response rating, Wild oat” value (wild oat; [13]) was 50. For the same compound, the “Plant response rating, Wild oat” value (wild oat; [14]) was 70, the “Barley (winter) plant response rating (0 to 100 scale)” value (winter barley) was 60 and the “Plant response rating, Barley (winter)” value (winter barley; [13]) was 75. The “Plant response rating, Barley (winter)” value (winter barley; [14]) was 80.

CC(C)N(Cc1ccccc1)C(=O)n1oc(=O)n(C(C)C)c1=O [Compound 165] was tested, and the “B. signalgrass plant response rating” value (surinam grass; [15]) was 1, the “B. signalgrass plant response rating” value (surinam grass; [3]) was 0 and the “B. signalgrass plant response rating (0 to 10 scale)” value (surinam grass; [16]) was 4. The “B. signalgrass plant response rating” value (surinam grass; [17]) was 6, the “B. signalgrass plant response rating” value (surinam grass; [18]) was 6 and the “B. signalgrass plant response rating” value (surinam grass; [19]) was 0. The “Plant response rating, B. signalgrass” value (surinam grass; [20]) was 5, the “B. signalgrass plant response rating” value (surinam grass; [10]) was 8 and the “Cocklebur plant response rating” value (cocklebur; [15]) was 0. The “Cocklebur plant response rating” value (cocklebur; [3]) was 0, the “Cocklebur plant response rating (0 to 10 scale)” value (cocklebur; [16]) was 0 and the “Cocklebur plant response rating” value (cocklebur; [17]) was 0. The “Cocklebur plant response rating” value (cocklebur; [18]) was 0, the “Cocklebur plant response rating” value (cocklebur; [19]) was 0 and the “Plant response rating, Cocklebur” value (cocklebur; [20]) was 0. For the same compound, the “Cocklebur plant response rating” value (cocklebur; [21]) was 0, the “Corn plant response rating” value (corn; [15]) was 0 and the “Corn plant response rating” value (corn; [3]) was 0. The “Corn plant response rating (0 to 10 scale)” value (corn; [16]) was 0, the “Corn plant response rating” value (corn; [17]) was 0 and the “Corn plant response rating” value (corn; [18]) was 0. The “Corn plant response rating” value (corn; [19]) was 0, the “Plant response rating, Corn” value (corn; [20]) was 3 and the “Corn plant response rating” value (corn; [21]) was 3. The “Crabgrass plant response rating” value (crabgrass; [15]) was 4, the “Crabgrass plant response rating” value (crabgrass; [3]) was 4 and the “Crabgrass plant response rating (0 to 10 scale)” value (crabgrass; [16]) was 7. For the same compound, the “Crabgrass plant response rating” value (crabgrass; [17]) was 8, the “Crabgrass plant response rating” value (crabgrass; [18]) was 8 and the “Crabgrass plant response rating” value (crabgrass; [19]) was 2. For the same compound, the “Plant response rating, Crabgrass” value (crabgrass; [20]) was 9, the “Crabgrass plant response rating” value (crabgrass; [21]) was 9 and the “Plant response rating, Wheat (winter)” value (winter wheat [1]; Rate 1000 g/ha, 0 to 100 scale, 0 is no effect and 100 is complete control) was 85. The “Plant response rating, Wheat (winter)” value (winter wheat [1]; Rate 500 g/ha, 0 to 100 scale, 0 no effect, 100 complete control) was 65, the “Wheat (winter) plant response rating” value (winter wheat [1]; [12]) was 40 and the “Blackgrass plant response rating (0 to 100 scale)” value (blackgrass) was 40. The “Plant response rating, Blackgrass” value (blackgrass; [22]) was 60, the “Plant response rating, Blackgrass” value (blackgrass; [11]) was 100 and the “Green foxtail plant response rating (0 to 100 scale)” value (green foxtail) was 50. For the same compound, the “Plant response rating, Green foxtail” value (green foxtail; [22]) was 55, the “Plant response rating, Green foxtail” value (green foxtail; [11]) was 65 and the “I. Ryegrass plant response rating (0 to 100 scale)” value (Italian ryegrass) was 60. The “Plant response rating, I. Ryegrass” value (Italian ryegrass; [22]) was 55, the “Plant response rating, I. Ryegrass” value (Italian ryegrass; [11]) was 70 and the “Wheat (winter) plant response rating (0 to 100 scale)” value (winter wheat [2]) was 40. For the same compound, the “Plant response rating, Wheat (winter)” value (winter wheat [2]; [22]) was 50, the “Plant response rating, Wheat (winter)” value (winter wheat [2]; [11]) was 70 and the “Wild oat plant response rating (0 to 100 scale)” value (wild oat) was 55. The “Plant response rating, Wild oat” value (wild oat; [22]) was 60, the “Plant response rating, Wild oat” value (wild oat; [11]) was 70 and the “Barley (winter) plant response rating (0 to 100 scale)” value (winter barley) was 20. The “Plant response rating, Barley (winter)” value (winter barley; [22]) was 55 and the “Plant response rating, Barley (winter)” value (winter barley; [11]) was 50.

Reference: patent US6737383B1, “Herbicidal oxadiazolidines” (priority 1999, dated 2004)
